Reference: article PMC8291583, “Design, synthesis, and evaluation of 3,7-substituted coumarin derivatives as multifunctional Alzheimer’s disease agents” (Journal of Enzyme Inhibition and Medicinal Chemistry, 2021)

Key:
[1] = molecular target: recombinant human MAO-B (Homo sapiens, UniProt P27338); assay type: biochemical; conditions: preincubation 0-60 min, inhibitor about twofold IC50
Description: The concentration of inhibitor in these incubations was approximately twofold the measured IC50 value for the inhibition of the MAO-B enzyme. Potassium phosphate buffer (100 mM, pH 7.4, made isotonic with NaCl) was used as the incubation medium. A final concentration of 30 hx00B5;M kynuramine for MAO-B was then added to the preincubated enzyme preparations and the resulting 250 µl reactions were incubated at 37 °C for 15 min. The reactions were terminated with the addition of 200 µl NaOH (2 N) and a volume of 600 µl distilled water was added to each reaction. The fluorescence of the MAO-B generated 4-hydroxyquinoline in the supernatant fractions were measured using a fluorescent microplate reader at an excitation wavelength of 310 nm and an emission wavelength of 400 nm. Time-dependent graphs were plotted against the relative fluorescent unit readings (RFU).
To determine the binding mode of the studied compounds on MAO-B, the time dependency of enzyme inhibition was measured. If the compounds form a covalent or irreversible adduct with the enzyme, a time-dependent reduction of enzyme activity would be expected. […] For this purpose, the concentrations of the test compounds chosen were approximately twofold the measured IC50 values for the inhibition of the respective enzymes.

[2] = test system: MPP+-compromised SH-SY5Y neuroblastoma cells; assay type: cell-based, human; conditions: 10 µM compound, 2000 µM MPP+; for survival rate of MPP+-treated cells: untreated control = 100%; for MPP+ neuroprotection (difference in percentage cell viability vs MPP+ only treated cells): 2 h pre-treatment, 24 h, SH-SY5Y
Description: SH-SY5Y cells were seeded onto a 96-well plate in a growth medium at a density of 10,000 cells/well. Cells were pre-treated with test compounds at a concentration of 10 µM and thereafter 2000 µM MPP^+ following a 2-h incubation period. Afterwards, cells were incubated for 24 h and MTT colorimetric assay was used to measure cell viability relative to untreated control. To determine the data’s statistical significance, the One-way ANOVA Turkey’s multiple comparison test was conducted on all experimental replicates using GraphPad Prism® 8 (San Diego, USA).
The SH-SY5Y cells were pre-treated with 10 µM of the test compounds for 2 h followed by the addition of 2000 µM of MPP^+.

[3] = test system: Aβ 25–35 treated SH-SY5Y cells; experiment: Amyloid-beta 25–35 induced neurotoxicity (MTT); assay type: cell-based, human; conditions: 10 µM to 100 µM compound, Aβ 25–35 20 µM, 24 h
Description: Human neuroblastoma cells (SH-SY5Y) were grown in a culture medium (DMEM/F-12) and supplemented with 10% foetal bovine serum. Prophylactically, 1% v/v of penicillin/streptomycin was added to the medium. Cells were maintained by incubation at 37 °C with 5% carbon dioxide. All experiments were performed by seeding the cells into 24-well plates. Once confluent, the cells were then pre-treated with compounds 6 and 7 (10 µM) for 1 h, followed by Aβ 25–35 addition (20 µM) and incubated for 24 h. The untreated control cells were treated with DMEM which contained DMSO and were incubated in the same manner as the treated cells. […] The level of significance was analysed using One-way ANOVA statistical analysis and expressed using the p-value.
The accumulation of extracellular Aβ plaques has been marked as one of the pathological hallmarks of neurotoxicity associated with AD[59–61] and coumarin moieties have previously shown to inhibit Aβ plaque formation and Aβ induced neurotoxicity[62]^,[63]. To further explore the neuroprotective potential of the propargylamine-containing coumarin derivatives 6 and 7, their ability to curb neurotoxicity induced by the amyloid-β (Aβ) protein was thus assessed according to the method described in the experimental section. […]

[4] = test system: SH-SY5Y neuroblastoma cells; experiment: MTT cytotoxicity assay; assay type: cell-based, human; conditions: 48 h
Description: The human neuroblastoma SH-SY5Y cells were generously donated by collaborators from the Blackburn Laboratory, University of Cape Town. Cells were cultured in monolayer in Dulbecco’s Modified Eagle Medium (DMEM, Gibco, Life Technologies Corporation UK), supplemented with 10% foetal bovine serum (FBS, Gibco, Life Technologies Corporation, Paisley, UK), 100 U/ml penicillin, and 100 µg/ml streptomycin (Lonza Group Ltd., Verviers Belgium). Cultures were incubated at 37 °C in a humidified atmosphere with 5% CO2. The growth medium was replaced every 3 days and cells were sub-cultured when they attained 70 to 80% confluency using a solution of 0.25% trypsin EDTA (Lonza Group Ltd., Verviers, Belgium).
SH-SY5Y cells were plated in growth medium in the flat bottom 96 well plates at a density of approximately 7500 cells/well. The cells were allowed to adhere to the plate surface for 24 h and following this their media were replenished with fresh media containing the test compounds at 10 µM, 50 µM and 100 µM concentrations dissolved in DMSO. Vehicle control cells were treated with DMSO, at a concentration similar to that of the highest concentration of the test compounds. Following an incubation period of 48 h, 10 µl of MTT solution (5 mg/ml) was added to each well. This was further incubated for 4 h and the formazan formed was solubilised with 100 µl of DMSO. The plates were read using a BMG Labtech Omega® POLARStar plate reader spectrophotometer (Ortenberg, Germany) to determine the absorbance recorded at a wavelength of 570 nm. The percentage cell viability was calculated relative to the vehicle control using the following formula: Cellviability%=(Absorbanceoftreatedwell/Absorbanceofuntreatedwell)×100 [drawing 1]

recombinant human MAO-B, sequence (P27338 whole entry): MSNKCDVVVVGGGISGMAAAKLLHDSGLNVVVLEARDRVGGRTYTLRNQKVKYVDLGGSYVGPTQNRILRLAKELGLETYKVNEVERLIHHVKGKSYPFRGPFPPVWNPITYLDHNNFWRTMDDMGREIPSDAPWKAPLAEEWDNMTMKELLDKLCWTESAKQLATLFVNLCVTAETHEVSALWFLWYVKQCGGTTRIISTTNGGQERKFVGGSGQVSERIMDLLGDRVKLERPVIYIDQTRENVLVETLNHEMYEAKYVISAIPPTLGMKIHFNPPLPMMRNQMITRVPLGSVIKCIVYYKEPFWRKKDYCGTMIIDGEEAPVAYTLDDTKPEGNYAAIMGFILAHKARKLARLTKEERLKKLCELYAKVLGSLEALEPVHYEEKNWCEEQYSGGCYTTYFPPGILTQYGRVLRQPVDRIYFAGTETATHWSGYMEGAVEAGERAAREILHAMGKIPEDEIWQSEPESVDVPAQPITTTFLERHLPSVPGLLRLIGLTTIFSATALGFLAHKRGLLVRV

SMILES | mode of MAO-B inhibition (time dependency) [1] | survival rate of MPP+-treated cells [2] [%] | MPP+ neuroprotection (difference in percentage cell viability vs MPP+ only treated cells) [2] [%] | neuroprotection against Aβ 25–35 cytotoxicity [3] | cell survival (MTT) ([4]; 50 µM) [%] | cell survival (MTT) ([4]; 100 µM) [%]
C#CCNCc1cc2ccc(OCCc3ccccc3)cc2oc1=O [Compound 6, 7-(2-phenylethoxy)-3-{[(prop-2-yn-1-yl)amino]methyl}-2H-1-benzopyran-2-one] | reversible inhibitors of MAO-B | 92 | 35.96 | did not show any significant ability to mitigate the cytotoxic effects |  | 
C#CCNCc1cc2ccc(OC(=O)N(CC)CC)cc2oc1=O [Compound 7, 2-oxo-3-{[(prop-2-yn-1-yl)amino]methyl}-2H-1-benzopyran-7-yl-diethylcarbamate] | reversible inhibitors of MAO-B | 85 | 28.19 | did not show any significant ability to mitigate the cytotoxic effects |  | 
O=c1oc2cc(OCCc3ccccc3)ccc2cc1CBr [Compound 4, 3-(bromomethyl)-7-(2-phenylethoxy)-2H-1-benzopyran-2-one] |  |  | 22.11 |  | 65 | 7
CCN(CC)C(=O)Oc1ccc2cc(CBr)c(=O)oc2c1 [Compound 5, 3-(bromomethyl)-2-oxo-2H-1-benzopyran-7-yl-diethylcarbamate] |  |  | 21.86 |  | 0 | 0
